# Measurements from patent US12637720B2, “Molecular subtyping of small cell lung cancer to predict therapeutic responses” (Board of Regents, The University of Texas System, priority 2019, dated 2026).
# T1: DLL3 (Homo sapiens, UniProt Q9NYJ7)
# T1 construct: host or cells: SCLC tumours of patients in the clinical trial (endogenous DLL3)
# T1 sequence (Q9NYJ7 27-618): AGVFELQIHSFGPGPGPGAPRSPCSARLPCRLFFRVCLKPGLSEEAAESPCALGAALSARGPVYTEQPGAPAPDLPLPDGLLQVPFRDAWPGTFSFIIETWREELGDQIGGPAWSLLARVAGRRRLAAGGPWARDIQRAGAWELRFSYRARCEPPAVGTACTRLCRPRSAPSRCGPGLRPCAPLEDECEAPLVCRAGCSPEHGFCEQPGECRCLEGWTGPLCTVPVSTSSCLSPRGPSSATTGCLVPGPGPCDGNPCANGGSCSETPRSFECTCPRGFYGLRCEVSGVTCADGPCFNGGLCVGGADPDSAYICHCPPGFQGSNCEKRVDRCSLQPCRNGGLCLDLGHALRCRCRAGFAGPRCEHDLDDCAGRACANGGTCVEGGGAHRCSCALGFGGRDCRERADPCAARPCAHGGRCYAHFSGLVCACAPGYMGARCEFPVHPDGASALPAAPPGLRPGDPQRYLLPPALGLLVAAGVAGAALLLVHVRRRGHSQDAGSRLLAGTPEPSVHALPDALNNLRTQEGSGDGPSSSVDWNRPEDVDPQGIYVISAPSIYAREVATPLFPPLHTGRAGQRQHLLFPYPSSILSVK
# B1: rovalpituzumab tesirine: ADC targeting the inhibitory Notch ligand Delta-like ligand 3 (DLL3) (conjugate, chains of the INN, looked up)
# VH: QVQLVQSGAEVKKPGASVKVSCKASGYTFTNYGMNWVRQAPGQGLEWMGWINTYTGEPTYADDFKGRVTMTTDTSTSTAYMELRSLRSDDTAVYYCARIGDSSPSDYWGQGTLVTVSS
# VL: EIVMTQSPATLSVSPGERATLSCKASQSVSNDVVWYQQKPGQAPRLLIYYASNRYTGIPARFSGSGSGTEFTLTISSLQSEDFAVYYCQQDYTSPWTFGQGTKLEIK
# modifications: tesirine
# Legend:
# [1] = system: MDA-SC53 and MDA-SC68 CDX models; assay: Cisplatin treatment of CTC-derived xenograft (CDX) models; type: in vivo, mice
# Source text: Circulating-tumor cell derived xenograft model generation. Patients diagnosed with SCLC at the University of Texas MD Anderson Cancer Center were selected on the basis of extensive-stage disease irrespective of age, gender or other clinical criteria. These patients underwent informed consent to Institutional Review Board (IRB)-approved protocol LAB10-0442 (“Evaluation of blood-based test for the detection of circulating tumor cells and circulating proteins and microRNAs and molecular analysis for polymorphisms and mutations”) and blood was collected. Technical details are as previously described (Stewart et al., 2020b). One vial of blood was collected for isolation and banking of plasma and peripheral blood mononuclear cells for use as a normal control. […] Mice were monitored for formation of a flank tumor and were euthanized when tumor burden reached 1000-1500 mm^3. […]
# Single-cell RNAseq. […] Cells were then stained for anti-human HLA A647 (Biolegend 311414), Calcein AM (C3100MP) and DAPI (Lifetech D1306, 1 μg/mL) and sorted by Fluorescence-Activated Cell sorting (FACS) to select only live, human cells for downstream single cell transcriptomic analyses. Sorted cells were washed once with 0.04% BSA in PBS and counted on Countess II automated cell counter (ThermoFisher). […]
# SCLC cell lines = assay: Cisplatin CellTiter-Glo cell viability, IC50 compared between SCLC subtypes; type: cell-based
# Description: Drug response data. With the exception of cisplatin (Allison Stewart et al., 2017; Gay et al., 2019), drug response data included publicly available data sets (Polley et al., 2016). For cisplatin, cell lines were plated at 2,000 cells per well in 96-well plates 24 hours prior to treatment with drug using standard cell culture conditions. Each line was treated, in triplicate, with cisplatin at starting concentration of 10 μmon followed by 1:3 serial dilutions and DMSO-only control. Following 120-hour incubations, cell viability was assessed using CellTiter-Glo Luminescent Cell Viability Assay (Promega). IC50 values were estimated using software program drexplorer with fitting of multiple dose-response models and selection of best model using the residual standard error.
# While there are biological differences between each subtype, it not known to what extent these differences yield distinct responses to anti-cancer therapies. To investigate subtype-specific vulnerabilities, SCLC cell line in vitro drug response data for over 500 drugs were used (Gay, 2019; Polley et al., 2016). […] For each subtype, a drug or drug class that worked especially well was identified, often accompanied by differential expression of the drug target or putative predictive biomarker.
# platinum-resistant SCLC = settings: patients with platinum-resistant SCLC; cited from earlier work
# relapsed SCLC = settings: single-agent, relapsed SCLC patients, KEYNOTE-158; cited from earlier work
# DLL3 = target: T1, DLL3; settings: cited from earlier work
molecule,measurement,setting,value
N.N.[Cl][Pt][Cl] [cisplatin],response of CDX model to cisplatin,"[1]; MDA-SC68rel model, relapsed after in vivo cisplatin treatment",cisplatin-resistant
same,response of CDX model to cisplatin,[1]; treatment-naive MDA-SC68 parental model,cisplatin-sensitive
same,cisplatin sensitivity of SCLC-A models,SCLC cell lines; SCLC-A,range of sensitivities
same,cisplatin sensitivity of SCLC-I models,SCLC cell lines; SCLC-I,resistant
same,cisplatin sensitivity of SCLC-N models,SCLC cell lines; SCLC-N,resistant
same,cisplatin sensitivity of SCLC-P models,"SCLC cell lines; SCLC-P, mean IC50 versus other subtypes, trend",most sensitive
nivolumab: anti-PD-1 antibody described in WO2006/121168,overall survival benefit versus chemotherapy,platinum-resistant SCLC,preferential OS benefit
pembrolizumab: anti-PD-1 antibody described in WO2009/114335,response rate,relapsed SCLC,19%
B1,clinical activity,DLL3; Phase II clinical trial for SCLC,only modest activity
same,toxicity,"DLL3; Phase II clinical trial, of the conjugated cytotoxic molecule",unexpected toxicity
